Test results taken from patent publication US12012388B1, “4-chloro-n'-(2-(5-(4-chlorophenyl)-1,3,4-oxadiazol-2-ylthio)acetoxy)benzimidamide as an antimicrobial compound” (KING FAISAL UNIVERSITY, priority 2023, dated 2024).

Tests used:
Assay type in all cases: cell-based
Bacillus Cereus = assay: Agar plate disc-diffusion, antibacterial activity (inhibition zone); details: nutrient agar, 37° C., 48 h, DMSO zone subtracted
Protocol: (§1) The agar plate disc-diffusion method was applied. Sterilized filter papers (6 mm in diameter) were wetted with 10 μL of a solution of 4-chloro-N′-(2-(5-(4-chlorophenyl)-1,3,4-oxadiazol-2-ylthio)acetoxy)benzimidamide (3) to be tested, containing 10 mg/mL in DMSO, and the discs were allowed to air dry. The discs were then placed onto the surface of agar plates (nutrient agar for bacteria and Sabouraud's dextrose agar for fungi) seeded with the test organism. Each plate contained 15 mL of the agar medium, previously seeded with 0.2 mL of the broth culture of each organism pregrown for 18 hours. The plates were incubated at 37° C. for 48 h, and 72 h for fungi. The inhibition zones were measured in mm. Discs impregnated with DMSO were used as a control, and its inhibition zone was subtracted from the tested compound actual inhibition zone.
(§2) The results of the antimicrobial testing can be observed in Tables 1 and 2, below, using ciprofloxacin as a reference.

Escherichia coli = assay: as above; details: nutrient agar, 37° C., 48 h, DMSO zone subtracted
Protocol: as §1, §2

Pseudomonas aeruginosa = assay: as above; details: nutrient agar, 37° C., 48 h, DMSO zone subtracted
Protocol: as §1, §2

Staphylococcus aureus = assay: as above; details: nutrient agar, 37° C., 48 h, DMSO zone subtracted
Protocol: as §1, §2

Aspergillus flavus = assay: Agar plate disc-diffusion, antifungal activity (inhibition zone); details: Sabouraud's dextrose agar, 37° C., 72 h, DMSO zone subtracted
Protocol: as §1, §2

[1] = test system: Chrysosporium keratinophilum; assay: as above; details: Sabouraud's dextrose agar, 37° C., 72 h, DMSO zone subtracted
Protocol: as §1, §2

[2] = A = concentration of comp. = 10,000 μL
[3] = B = concentration of comp. = 30.000 μL
[4] = C = concentration of comp. = 50,000 μL

N/C(=N\OC(=O)CSc1nnc(-c2ccc(Cl)cc2)o1)c1ccc(Cl)cc1 [Compound 3, 4-chloro-N′-(2-(5-(4-chlorophenyl)-1,3,4-oxadiazol-2-ylthio)acetoxy)benzimidamide]
inhibition zone, Bacillus Cereus, A (Bacillus Cereus; [2]): 20 mm
inhibition zone, Bacillus Cereus, B (Bacillus Cereus; [3]): 26 mm
inhibition zone, Bacillus Cereus, C (Bacillus Cereus; [4]): 39 mm
inhibition zone, Escherichia coli, A (Escherichia coli; [2]): 27 mm
inhibition zone, Escherichia coli, B (Escherichia coli; [3]): 34 mm
inhibition zone, Escherichia coli, C (Escherichia coli; [4]): 41 mm
inhibition zone, Pseudomonas aeruginosa, A (Pseudomonas aeruginosa; [2]): 21 mm
inhibition zone, Pseudomonas aeruginosa, B (Pseudomonas aeruginosa; [3]): 24 mm
inhibition zone, Pseudomonas aeruginosa, C (Pseudomonas aeruginosa; [4]): 36 mm
inhibition zone, Staphylococcus aureus, A (Staphylococcus aureus; [2]): 19 mm
inhibition zone, Staphylococcus aureus, B (Staphylococcus aureus; [3]): 24 mm
inhibition zone, Staphylococcus aureus, C (Staphylococcus aureus; [4]): 37 mm
inhibition zone, Aspergillus flavus, A (Aspergillus flavus; [2]): 24 mm
inhibition zone, Aspergillus flavus, B (Aspergillus flavus; [3]): 26 mm
inhibition zone, Aspergillus flavus, C (Aspergillus flavus; [4]): 35 mm
inhibition zone, Chrysosporium keratinophilum, A [1, 2]: 25 mm
inhibition zone, Chrysosporium keratinophilum, B [1, 3]: 27 mm
inhibition zone, Chrysosporium keratinophilum, C [1, 4]: 40 mm
